System: MV-4-11 cells
Assay: Gene expression microarray analysis (Affymetrix PrimeView) and GSEA
Format: cell-based, human
Design: RFU PODN (11730768_x_at) / Fold change /veh PODN (11730768_x_at) / RFU LINC00158 (11744669_a_at) / Fold change /veh LINC00158 (11744669_a_at) / RFU DUSP10 (11751237_a_at) / Fold change /veh DUSP10 (11751237_a_at) / RFU ID3 (11757404_x_at) / Fold change /veh ID3 (11757404_x_at) / RFU PLEKHG5 (11737974_s_at) / Fold change /veh PLEKHG5 (11737974_s_at) / RFU LRRC4B (11730491_at) / Fold change /veh LRRC4B (11730491_at) / RFU GIMAP4 (11747438_a_at) / Fold change /veh GIMAP4 (11747438_a_at) / RFU KRT8 (11758183_x_at) / Fold change /veh KRT8 (11758183_x_at) / RFU CNN1 (11734310_a_at) / Fold change /veh CNN1 (11734310_a_at) / RFU VPS37D (11726825_at) / Fold change /veh VPS37D (11726825_at) / RFU C10orf10 (11716522_x_at) / Fold change /veh C10orf10 (11716522_x_at) / RFU KIR2DL2 /// KIR2DL4 /// KIR2DL5A /// KIR2DL5B /// KIR2DS1 /// KIR2DS2 /// KIR2DS3 /// KIR2DS4 /// KIR3DL3 /// KIR3DL3 /// KIR3DS1 (11738374_at) / Fold change /veh KIR2DL2 /// KIR2DL4 /// KIR2DL5A /// KIR2DL5B /// KIR2DS1 /// KIR2DS2 /// KIR2DS3 /// KIR2DS4 /// KIR3DL3 /// KIR3DL3 /// KIR3DS1 (11738374_at) / RFU C1QL1 (11718748_at) / Fold change /veh C1QL1 (11718748_at) / RFU TMPRSS4 (11747572_a_at) / Fold change /veh TMPRSS4 (11747572_a_at) / RFU HAMP (11756126_x_at) / Fold change /veh HAMP (11756126_x_at) / RFU RNFT2 (11725882_a_at) / Fold change /veh RNFT2 (11725882_a_at) / RFU NR4A2 (11747474_a_at) / Fold change /veh NR4A2 (11747474_a_at) / RFU ABCC12 (11746883_a_at) / Fold change /veh ABCC12 (11746883_a_at) / RFU TMEM136 (11760407_x_at) / Fold change /veh TMEM136 (11760407_x_at) / RFU CLDN22 /// WWC2 (11732394_at) / Fold change /veh CLDN22 /// WWC2 (11732394_at) / RFU HLA-DPB1 (11760878_x_at) / Fold change /veh HLA-DPB1 (11760878_x_at) / RFU SPINT1 (11716480_a_at) / Fold change /veh SPINT1 (11716480_a_at) / RFU GAP43 (11754022_s_at) / Fold change /veh GAP43 (11754022_s_at) / RFU A4GNT (11735810_at) / Fold change /veh A4GNT (11735810_at) / RFU PRB3 (11715151_x_at) / Fold change /veh PRB3 (11715151_x_at) / RFU TUBB4B (11761932_at) / Fold change /veh TUBB4B (11761932_at) / RFU CAPN14 (11732068_a_at) / Fold change /veh CAPN14 (11732068_a_at) / RFU TMCC2 (11721928_a_at) / Fold change /veh TMCC2 (11721928_a_at) / RFU IRGQ (11745062_a_at) / Fold change /veh IRGQ (11745062_a_at) / RFU FAM174B (11720279_a_at) / Fold change /veh FAM174B (11720279_a_at) / RFU TMPRSS4 (11748680_a_at) / Fold change /veh TMPRSS4 (11748680_a_at) / RFU FAM212B (11763350_a_at) / Fold change /veh FAM212B (11763350_a_at) / RFU PLEKHG5 (11743358_a_at) / Fold change /veh PLEKHG5 (11743358_a_at) / RFU ZSCAN30 (11745921_a_at) / Fold change /veh ZSCAN30 (11745921_a_at) / RFU CMKLR1 (11741424_a_at) / Fold change /veh CMKLR1 (11741424_a_at) / RFU LOC101060620 /// MAPK8IP1 (11723275_at) / Fold change /veh LOC101060620 /// MAPK8IP1 (11723275_at) / RFU SPTSSB (11747773_x_at) / Fold change /veh SPTSSB (11747773_x_at) / RFU PRSS12 (11739890_at) / Fold change /veh PRSS12 (11739890_at) / RFU BIN1 (11741810_x_at) / Fold change /veh BIN1 (11741810_x_at) / RFU WNT11 (11732464_a_at) / Fold change /veh WNT11 (11732464_a_at) / RFU C10orf10 (11716521_a_at) / Fold change /veh C10orf10 (11716521_a_at) / RFU C5orf56 (11738089_at) / Fold change /veh C5orf56 (11738089_at) / RFU CYB561 (11721691_x_at) / Fold change /veh CYB561 (11721691_x_at) / RFU ANKRD19P (11752326_a_at) / Fold change /veh ANKRD19P (11752326_a_at) / RFU OR2T12 /// OR2T33 /// OR2T8 (11738714_s_at) / Fold change /veh OR2T12 /// OR2T33 /// OR2T8 (11738714_s_at) / RFU VCAN (11748164_a_at) / Fold change /veh VCAN (11748164_a_at) / RFU JSRP1 (11732532_at) / Fold change /veh JSRP1 (11732532_at) / RFU KRTAP10-11 (11738290_x_at) / Fold change /veh KRTAP10-11 (11738290_x_at) / RFU MYO3A (11730013_a_at) / Fold change /veh MYO3A (11730013_a_at) / RFU EBF3 (11725865_a_at) / Fold change /veh EBF3 (11725865_a_at) / RFU CAMK2N1 (11719241_x_at) / Fold change /veh CAMK2N1 (11719241_x_at) / RFU C5orf56 (11738088_a_at) / Fold change /veh C5orf56 (11738088_a_at) / RFU OLFML3 (11715873_a_at) / Fold change /veh OLFML3 (11715873_a_at) / RFU LOC100653217 /// NTM (11731650_a_at) / Fold change /veh LOC100653217 /// NTM (11731650_a_at) / RFU MAPK11 (11762145_a_at) / Fold change /veh MAPK11 (11762145_a_at) / RFU FIZ1 (11724087_x_at) / Fold change /veh FIZ1 (11724087_x_at) / RFU OASL (11726364_x_at) / Fold change /veh OASL (11726364_x_at) / RFU SOX15 (11748057_x_at) / Fold change /veh SOX15 (11748057_x_at) / RFU CD79A (11719716_a_at) / Fold change /veh CD79A (11719716_a_at) / RFU HIST1H1D (11736915_at) / Fold change /veh HIST1H1D (11736915_at) / RFU CASKIN2 (11723855_a_at) / Fold change /veh CASKIN2 (11723855_a_at) / RFU LOC730098 (11760151_x_at) / Fold change /veh LOC730098 (11760151_x_at) / RFU OR4N2 (11742367_at) / Fold change /veh OR4N2 (11742367_at) / RFU PRRT2 (11749266_a_at) / Fold change /veh PRRT2 (11749266_a_at) / RFU SNX32 (11753110_a_at) / Fold change /veh SNX32 (11753110_a_at) / RFU CDHR5 (11726645_a_at) / Fold change /veh CDHR5 (11726645_a_at) / RFU RCAN1 (11760418_a_at) / Fold change /veh RCAN1 (11760418_a_at) / RFU FAM167A (11723789_a_at) / Fold change /veh FAM167A (11723789_a_at) / RFU FAM26E (11764081_at) / Fold change /veh FAM26E (11764081_at) / RFU ISYNA1 (11749810_s_at) / Fold change /veh ISYNA1 (11749810_s_at) / RFU ACY1 (11761880_at) / Fold change /veh ACY1 (11761880_at) / RFU 11764098_at / Fold change /veh 11764098_at / RFU SAMD14 (11745864_x_at) / Fold change /veh SAMD14 (11745864_x_at) / RFU NPB (11741838_a_at) / Fold change /veh NPB (11741838_a_at) / RFU TMPRSS6 (11731388_a_at) / Fold change /veh TMPRSS6 (11731388_a_at) / RFU KRTAP10-2 (11738614_at) / Fold change /veh KRTAP10-2 (11738614_at) / RFU ARHGAP8 /// PRR5-ARHGAP8 (11727945_x_at) / Fold change /veh ARHGAP8 /// PRR5-ARHGAP8 (11727945_x_at) / RFU KRTAP5-7 /// NADSYN1 (11734609_at) / Fold change /veh KRTAP5-7 /// NADSYN1 (11734609_at) / RFU RASL12 (11751679_a_at) / Fold change /veh RASL12 (11751679_a_at) / RFU CDKN2B (11736163_a_at) / Fold change /veh CDKN2B (11736163_a_at) / RFU PRF1 (11729649_at) / Fold change /veh PRF1 (11729649_at) / RFU, ZNF638 /// ZNF638-IT1 / Fold change vs veh, ZNF638 /// ZNF638-IT1 / RFU, PANK3 / Fold change vs veh, PANK3 / RFU, SH3YL1 / Fold change vs veh, SH3YL1 / RFU, ZEB2 / Fold change vs veh, ZEB2 / RFU, NRIP1 / Fold change vs veh, NRIP1 / RFU, PTTG1IP / Fold change vs veh, PTTG1IP / RFU, CAPN2 / Fold change vs veh, CAPN2 / RFU, MED14 / Fold change vs veh, MED14 / RFU, SNORA58 / Fold change vs veh, SNORA58 / RFU, C1orf63 / Fold change vs veh, C1orf63 / RFU, LRRFIP1 / Fold change vs veh, LRRFIP1 / RFU, NDUFAF7 / Fold change vs veh, NDUFAF7 / RFU, SLC12A2 / Fold change vs veh, SLC12A2 / RFU, IBTK / Fold change vs veh, IBTK / RFU, ESF1 / Fold change vs veh, ESF1 / Fold change vs veh, TMEM50B / RFU, TAOK1 / Fold change vs veh, TAOK1 / RFU, ACBD3 / Fold change vs veh, ACBD3 / RFU, TMA16 / Fold change vs veh, TMA16 / RFU, RWDD3 / Fold change vs veh, RWDD3 / RFU, BCAT1 / Fold change vs veh, BCAT1 / RFU, EDEM3 / Fold change vs veh, EDEM3 / RFU, TMEM33 / Fold change vs veh, TMEM33 / RFU, WDR75 / Fold change vs veh, WDR75 / RFU, AHCTF1 / Fold change vs veh, AHCTF1 / RFU, TFRC / Fold change vs veh, TFRC / RFU, ZDHHC17 / Fold change vs veh, ZDHHC17 / RFU, NOM1 / Fold change vs veh, NOM1 / RFU, ARL8B / Fold change vs veh, ARL8B / RFU, ZBTB11 / Fold change vs veh, ZBTB11 / RFU, TAMM41 / Fold change vs veh, TAMM41 / RFU, KIAA1704 /// LOC100996395 / Fold change vs veh, KIAA1704 /// LOC100996395 / RFU, ING1 / Fold change vs veh, ING1 / RFU, TRMT61B / Fold change vs veh, TRMT61B / RFU, FUBP3 / Fold change vs veh, FUBP3 / RFU, TP53 / Fold change vs veh, TP53 / RFU, TNKS2 / Fold change vs veh, TNKS2 / RFU, ZFP14 / Fold change vs veh, ZFP14 / RFU, ACTR2 / Fold change vs veh, ACTR2 / RFU, PPP3R1 / Fold change vs veh, PPP3R1 / RFU, PIK3R1 / Fold change vs veh, PIK3R1 / RFU, HNRNPA1 / Fold change vs veh, HNRNPA1 / RFU, RNF170 / Fold change vs veh, RNF170 / RFU, ZNF28 / Fold change vs veh, ZNF28 / RFU, RNGTT / Fold change vs veh, RNGTT / RFU, OGT / Fold change vs veh, OGT / RFU, BRD1 / Fold change vs veh, BRD1 / RFU, MARS / Fold change vs veh, MARS / RFU, ZNF655 / Fold change vs veh, ZNF655 / RFU, FAHD1 / Fold change vs veh, FAHD1 / RFU, BDP1 / Fold change vs veh, BDP1 / RFU, LRRCC1 / Fold change vs veh, LRRCC1 / RFU, ARID1A / Fold change vs veh, ARID1A / RFU, ZNF146 / Fold change vs veh, ZNF146 / RFU, ZNF330 / Fold change vs veh, ZNF330 / RFU, GPN3 / Fold change vs veh, GPN3 / RFU, C9orf123 / Fold change vs veh, C9orf123 / RFU, N4BP2L2 / Fold change vs veh, N4BP2L2 / RFU, ARFIP1 / Fold change vs veh, ARFIP1 / RFU, FAM179B / Fold change vs veh, FAM179B / RFU, BCL10 / Fold change vs veh, BCL10 / RFU, UHRF1BP1L / Fold change vs veh, UHRF1BP1L / RFU, BET1 / Fold change vs veh, BET1 / RFU, CNOT2 / Fold change vs veh, CNOT2 / RFU, ZNF268 / Fold change vs veh, ZNF268 / Fold change vs veh, ZNF507 / RFU, DGCR2 / Fold change vs veh, DGCR2 / RFU, WDSUB1 / Fold change vs veh, WDSUB1 / Fold change vs veh, HSP90B1 /// MIR3652 / RFU, ADSS / Fold change vs veh, ADSS / RFU, GK / Fold change vs veh, GK / RFU, ZNF148 / Fold change vs veh, ZNF148 / RFU, TAF9 / Fold change vs veh, TAF9 / RFU, SLC1A5 / Fold change vs veh, SLC1A5 / RFU, SLMO2 / Fold change vs veh, SLMO2 / RFU, ABCC4 / Fold change vs veh, ABCC4 / RFU, LOC101060439 /// RAP1B / Fold change vs veh, LOC101060439 /// RAP1B / RFU, RFX7 / Fold change vs veh, RFX7 / RFU, GTPBP10 / Fold change vs veh, GTPBP10 / RFU, CNEP1R1 / Fold change vs veh, CNEP1R1 / RFU, BIVM-ERCC5 /// ERCC5 / Fold change vs veh, BIVM-ERCC5 /// ERCC5 / RFU, ILF3 / Fold change vs veh, ILF3 / RFU 11762660_at / Fold change /veh 11762660_at / RFU VCAN (11757783_s_at) / Fold change /veh VCAN (11757783_s_at) / RFU DDX43 (11728927_at) / Fold change /veh DDX43 (11728927_at) / RFU KRT8 (11758188_x_at) / Fold change /veh KRT8 (11758188_x_at) / RFU NKD1 (11759106_at) / Fold change /veh NKD1 (11759106_at) / RFU SRD5A1 (11742802_a_at) / Fold change /veh SRD5A1 (11742802_a_at) / RFU TPSAB1 /// TPSB2 (11721975_s_at) / Fold change /veh TPSAB1 /// TPSB2 (11721975_s_at) / RFU GSTM3 (11746129_a_at) / Fold change /veh GSTM3 (11746129_a_at) / RFU IL23R (11737362_x_at) / Fold change /veh IL23R (11737362_x_at) / RFU TMEM51 (11727254_a_at) / Fold change /veh TMEM51 (11727254_a_at) / RFU PIWIL2 (11732686_x_at) / Fold change /veh PIWIL2 (11732686_x_at) / RFU ORM1 (11744905_x_at) / Fold change /veh ORM1 (11744905_x_at) / RFU CCDC152 (11743942_at) / Fold change /veh CCDC152 (11743942_at) / RFU ECM1 (11717891_a_at) / Fold change /veh ECM1 (11717891_a_at) / RFU IL23R (11748794_a_at) / Fold change /veh IL23R (11748794_a_at) / RFU TNFAIP8L3 (11732012_x_at) / Fold change /veh TNFAIP8L3 (11732012_x_at) / RFU MBOAT4 (11741988_at) / Fold change /veh MBOAT4 (11741988_at) / RFU 11764193_at / Fold change /veh 11764193_at / RFU TMEM53 (11763286_at) / Fold change /veh TMEM53 (11763286_at) / RFU MAGEB2 (11727129_at) / Fold change /veh MAGEB2 (11727129_at) / RFU TMEM200A (11744735_a_at) / Fold change /veh TMEM200A (11744735_a_at) / RFU CCDC152 (11751479_a_at) / Fold change /veh CCDC152 (11751479_a_at) / RFU FAM211A (11726209_a_at) / Fold change /veh FAM211A (11726209_a_at) / RFU RGS16 (11746705_a_at) / Fold change /veh RGS16 (11746705_a_at) / RFU VCAN (11755009_s_at) / Fold change /veh VCAN (11755009_s_at) / RFU RHOB (11743442_s_at) / Fold change /veh RHOB (11743442_s_at) / RFU RGS16 (11720943_a_at) / Fold change /veh RGS16 (11720943_a_at) / RFU RGS16 (11720944_at) / Fold change /veh RGS16 (11720944_at) / RFU, VPS4B / Fold change vs veh, VPS4B / RFU, CREB1 / Fold change vs veh, CREB1 / RFU, DNAJC13 / Fold change vs veh, DNAJC13 / RFU, GNAQ / Fold change vs veh, GNAQ / RFU, CDK5R1 / Fold change vs veh, CDK5R1 / RFU, ZRANB3 / Fold change vs veh, ZRANB3 / RFU, CUL4A / Fold change vs veh, CUL4A / RFU, CCNY / Fold change vs veh, CCNY / RFU, UFL1 / Fold change vs veh, UFL1 / RFU, COG3 / Fold change vs veh, COG3 / RFU, DIAPH2 / Fold change vs veh, DIAPH2 / RFU, SKA2 / Fold change vs veh, SKA2 / RFU, AFF3 / Fold change vs veh, AFF3 / RFU, LMF1 / Fold change vs veh, LMF1 / RFU, IPO11 / Fold change vs veh, IPO11 / RFU, DFFB / Fold change vs veh, DFFB / RFU, FOXP1 / Fold change vs veh, FOXP1 / RFU, CARD8 / Fold change vs veh, CARD8 / RFU, STRN3 / Fold change vs veh, STRN3 / RFU, ADK / Fold change vs veh, ADK / RFU, RASSF2 / Fold change vs veh, RASSF2 / RFU, WIPF1 / Fold change vs veh, WIPF1 / RFU, LARP1B / Fold change vs veh, LARP1B / RFU, RASA1 / Fold change vs veh, RASA1 / RFU, RB1 / Fold change vs veh, RB1 / RFU, PPFIA1 / Fold change vs veh, PPFIA1 / RFU, MAT2A / Fold change vs veh, MAT2A / RFU, CCT5 / Fold change vs veh, CCT5 / RFU, WDR92 / Fold change vs veh, WDR92 / RFU, CUX1 / Fold change vs veh, CUX1 / RFU, TTC7A / Fold change vs veh, TTC7A / RFU, TMEM135 / Fold change vs veh, TMEM135 / RFU, DEPTOR / Fold change vs veh, DEPTOR / RFU, CPM / Fold change vs veh, CPM / RFU, DNAJB6 / Fold change vs veh, DNAJB6 / RFU, CACNA2D3 / Fold change vs veh, CACNA2D3 / RFU, DTX4 / Fold change vs veh, DTX4 / RFU, TFCP2 / Fold change vs veh, TFCP2 / RFU, GMCL1 /// GMCL1P1 / Fold change vs veh, GMCL1 /// GMCL1P1 / RFU, AEBP2 / Fold change vs veh, AEBP2 / RFU, SNHG1 /// SNORD22 /// SNORD25 /// SNORD26 /// SNORD27 /// SNORD28 /// SNORD29 /// SNORD31 / Fold change vs veh, SNHG1 /// SNORD22 /// SNORD25 /// SNORD26 /// SNORD27 /// SNORD28 /// SNORD29 /// SNORD31 / Fold change (Aza/veh), C12orf56 (ProbeSet 11735607_a_at) / Fold change (ACY-1035/veh), C12orf56 (ProbeSet 11735607_a_at) / Fold change (Aza/veh), FGFR1OP (ProbeSet 11751329_s_at) / Fold change (ACY-1035/veh), FGFR1OP (ProbeSet 11751329_s_at) / Fold change (Aza/veh), VPS36 (ProbeSet 11739960_a_at) / Fold change (ACY-1035/veh), VPS36 (ProbeSet 11739960_a_at) / RFU SYPL1 (11715823_x_at) / Fold change /veh SYPL1 (11715823_x_at) / RFU IGFBP7 (11715501_s_at) / Fold change /veh IGFBP7 (11715501_s_at) / RFU REEP3 (11722064_at) / Fold change /veh REEP3 (11722064_at) / RFU IGLL1 (11728026_x_at) / Fold change /veh IGLL1 (11728026_x_at): dose or concentration left out as unconfirmed
Conditions: ProbeSet 11753055_s_at; LIST B

SMILES: Nc1ccc(-c2cccs2)cc1NC(=O)c1ccc2c(c1)cc(C1CC1)n2CCN1CCOCC1 [ACY-1035]
- Fold change vs veh, LOC101060439 /// RAP1B: 0.99

Reference: publication PMC5218480 (PLoS ONE, 2017)
